# Like-named read-outs stand apart in the source and are kept apart here.
# Tests used:
# [1] = molecular target: T1, soybean lipoxygenase isoenzyme-1 (SLOX-1) (Glycine max, UniProt P08170); assay: In vitro inhibition of soybean lipoxygenase; format: biochemical; details: pH 9.0, read-out: LOX Inh. IC50
# T1 construct: purchased Merck and Sigma-Aldrich
# T1 sequence (P08170 1-839): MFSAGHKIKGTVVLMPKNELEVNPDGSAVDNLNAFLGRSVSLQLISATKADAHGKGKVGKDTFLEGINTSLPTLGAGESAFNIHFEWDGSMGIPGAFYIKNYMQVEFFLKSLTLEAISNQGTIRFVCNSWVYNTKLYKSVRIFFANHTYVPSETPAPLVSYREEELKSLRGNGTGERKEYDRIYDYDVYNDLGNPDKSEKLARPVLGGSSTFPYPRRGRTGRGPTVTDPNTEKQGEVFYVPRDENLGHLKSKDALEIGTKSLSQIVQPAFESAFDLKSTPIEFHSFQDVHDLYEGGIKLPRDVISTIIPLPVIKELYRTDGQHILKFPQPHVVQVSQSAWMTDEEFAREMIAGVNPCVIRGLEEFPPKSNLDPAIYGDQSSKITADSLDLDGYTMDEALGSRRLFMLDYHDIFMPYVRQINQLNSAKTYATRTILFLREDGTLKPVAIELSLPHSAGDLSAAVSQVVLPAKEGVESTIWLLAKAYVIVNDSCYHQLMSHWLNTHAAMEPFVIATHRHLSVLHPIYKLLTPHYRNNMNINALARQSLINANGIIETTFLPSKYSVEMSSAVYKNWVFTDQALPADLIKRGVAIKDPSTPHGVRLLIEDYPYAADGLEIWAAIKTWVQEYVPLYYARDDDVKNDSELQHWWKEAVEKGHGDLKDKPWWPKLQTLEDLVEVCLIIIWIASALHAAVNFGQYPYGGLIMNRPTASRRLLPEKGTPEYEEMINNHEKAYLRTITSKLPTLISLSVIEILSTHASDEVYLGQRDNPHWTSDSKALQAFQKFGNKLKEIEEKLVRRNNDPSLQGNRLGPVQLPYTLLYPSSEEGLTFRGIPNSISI
# Protocol: In vitro anti-LOX activities were evaluated using soybean lipoxygenase isoenzyme-1 (SLOX-1), a commonly used model for mammalian LOXs.
# An in vitro study was conducted following a previously reported method. The tested compounds were dissolved in DMSO (100 µM) and incubated at room temperature with 0.1 mL of sodium linoleate as the substrate and 0.2 mL of soybean lipoxygenase solution in Tris-HCl buffer (pH 9.0).
# [2] = In vitro determination of NO release with Griess reagent; details: 100 μM, L-cysteine, pH 7.4, 37 °C, 60 min
# From the text: This assay evaluates the ability of nitrate esters to release nitric oxide (NO). First, sodium nitroprusside (SNP) reacts with the thiol compound, cysteine, which serves as a reducing agent (Scheme 5). The thiol donates electrons, facilitating the breakdown of the nitroprusside complex. Afterwards, the reaction leads to the formation of intermediate complexes, such as nitrosothiol species and the decomposition of these intermediates results in the release of nitric oxide (NO). According to the literature, measurements are conducted both in the presence and absence of the thiol agent, cysteine. No significant difference was observed between the two experimental conditions, and the results were reproducible. Sodium nitroprusside (SNP) was used as the reference compound [65].
# The compounds (from a 10 mM stock solution in DMSO, final concentration 100 μM) are added (20 μL) to each test tube. Then, 2 mL of phosphate buffer solution (pH 7.4) is added. L-cysteine, used as the thiol agent, is added to the mixture at a final concentration of 0.5 mM. The solution is incubated at 37 °C for 60 min, after which 1 mL is removed and mixed with 250 μL of Griess reagent (4 g sulfanilamide, 0.2 g N-(1-naphthyl)-ethylenediamine dihydrochloride, and 10 mL of H3PO4 solution, final volume adjusted to 100 mL). The mixture is allowed to stand for 10 min at room temperature, and the absorbance of the produced compound is measured at 540 nm. Sodium nitroprusside (SNP) is used as the reference compound. The results are presented as the release of NO2^− (% NO2^− (mol/mol)) induced by the compounds in the presence of L-cysteine (Table 6).
# MDA-MB-435 cells = assay: MTT viability assay; format: cell-based; details: Homo sapiens, 48 h
# U87 cells = assay: MTT viability assay; format: cell-based; details: Homo sapiens, U-87 MG, 48 h
# U251 cells = assay: MTT viability assay; format: cell-based; details: Homo sapiens, U-251, 48 h
# MDA-MB-231 cells = assay: MTT viability assay; format: cell-based; details: Homo sapiens, 48 h
# [3] = tested on: multiple cancer cell lines; assay: MTT viability assay, summary over several lines; format: cell-based
# Protocol: HeLa, MCF-7, U251, U87, MDA-MB-435, and MDA-MB-231 cancer cell lines were maintained in incubators at 37 °C with 5% CO2 in DMEM medium supplemented with 10% (v/v) fetal bovine serum (FBS) and antibiotics/antimycotics. All cell lines used in this study originate from the Laboratory of Biochemistry, Department of Chemistry, Aristotle University of Thessaloniki. They are low-passage, mycoplasma-free cancer cell lines that have been extensively used over the past 25 years in numerous studies across various fields of cancer research, including drug cytotoxicity testing.
# All cell lines tested were seeded in 96-well plates at a concentration of 6 × 10^3 cells per well, except HeLa, which were seeded at 3 × 10^3 cells per well. The day after, cells were exposed to increasing concentrations of the compounds for 48 h. Cell viability was determined using the 3-(4,5-dimethylthiazol-2-yl)-2,5-diphenyltetrazolium bromide (MTT) assay, a colorimetric assessment of cellular metabolic activity as described previously. Absorbance values from treated samples were normalized to those of untreated controls, which were assigned to a 100% viability value.
SMILES,IC50 [1],%NO2^− Release mol/mol at 100 μΜ [2],EC50 (MDA-MB-435 cells),EC50 (U87 cells),EC50 (U251 cells),EC50 (MDA-MB-231 cells),"EC50 ([3]; U251, U87, and MDA-MB-231, read-out: EC50 values in the remaining cell lines)",EC50 ([3]; read-out: EC50 values across multiple cancer cell lines)
"C/C(=N\O)c1ccc(NC(=O)COC(=O)/C=C/c2cccs2)cc1 [Compound 6c, 2-((4-((E)-1-(Hydroxyimino)ethyl)phenyl)amino)-2-oxoethyl (E)-3-(thiophen-2-yl)acrylate]",10 µM,4%,–,–,–,–,–,–
"C/C(=N\O)c1ccc(NC(=O)COC(=O)/C(=C/c2cccs2)c2ccccc2)cc1 [Compound 6i, 2-((4-((E)-1-(Hydroxyimino)ethyl)phenyl)amino)-2-oxoethyl (E)-2-phenyl-3-(thiophen-2-yl)acrylate]",60 µM,no activity and no,52.9 µM,45.4 µM,40.9 µM,42.8 µM,40.9 to 45.4 µM,36 to 45 µM
"O=C(/C=C/c1cc2ccccc2s1)OCc1c(-c2ccccc2)no[n+]1[O-] [Compound 9e, (E)-3-(((3-(Benzo[b]thiophen-2-yl)acryloyl)oxy)methyl)-4-phenyl-1,2,5-oxadiazole 2-oxide]",65 µM,no,–,–,–,–,–,–
